Reference: PubChem BioAssay (NCI)
Where “and” joins values, the source holds several entries; their conditions need not be identical. Identical values can stand only once.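 At the GI50, growth is halved. TGI is the concentration that stops growth completely.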

Key:
Experiment in all cases: inhibition of tumour cell growth, NCI panel, 384-well format
CAKI-1 renal = system: CAKI-1 renal
MCF7 breast = system: MCF7 breast
SN12C renal = system: SN12C renal
HCT-15 colon = system: HCT-15 colon
ACHN renal = system: ACHN renal
NCI-H23 lung = system: NCI-H23 lung
RPMI-8226 leukemia = system: RPMI-8226 leukemia
MDA-MB-435 melanoma = system: MDA-MB-435 melanoma
OVCAR-3 ovarian = system: OVCAR-3 ovarian
HCT-116 colon = system: HCT-116 colon
SNB-19 CNS = system: SNB-19 CNS
SF-539 CNS = system: SF-539 CNS
MDA-MB-231 breast = system: MDA-MB-231 breast
UACC-62 melanoma = system: UACC-62 melanoma
T-47D breast = system: T-47D breast
HL-60(TB) leukemia = system: HL-60(TB) leukemia
KM12 colon = system: KM12 colon
NCI-H226 lung = system: NCI-H226 lung
SK-MEL-5 melanoma = system: SK-MEL-5 melanoma
SK-OV-3 ovarian = system: SK-OV-3 ovarian
NCI-H522 lung = system: NCI-H522 lung
OVCAR-8 ovarian = system: OVCAR-8 ovarian
MALME-3M melanoma = system: MALME-3M melanoma
BT-549 breast = system: BT-549 breast
U251 glioblastoma = system: U251 glioblastoma
LOX IMVI melanoma = system: LOX IMVI melanoma
HCC-2998 colon = system: HCC-2998 colon
HS 578T breast = system: HS 578T breast
NCI/ADR-RES ovarian = system: NCI/ADR-RES ovarian
HOP-92 NSCLC = system: HOP-92 NSCLC
MOLT-4 leukemia = system: MOLT-4 leukemia
PC-3 prostate = system: PC-3 prostate
SF-268 CNS = system: SF-268 CNS
RXF 393 renal = system: RXF 393 renal
OVCAR-4 ovarian = system: OVCAR-4 ovarian
COLO 205 colon = system: COLO 205 colon
IGROV1 ovarian = system: IGROV1 ovarian
SK-MEL-28 melanoma = system: SK-MEL-28 melanoma
OVCAR-5 ovarian = system: OVCAR-5 ovarian
MDA-MB-468 breast = system: MDA-MB-468 breast
NCI-H322M lung = system: NCI-H322M lung
SR leukemia = system: SR leukemia
A498 renal = system: A498 renal
HOP-62 NSCLC = system: HOP-62 NSCLC
UACC-257 melanoma = system: UACC-257 melanoma
HT29 colon = system: HT29 colon
EKVX NSCLC = system: EKVX NSCLC
M14 melanoma = system: M14 melanoma
NCI-H460 NSCLC = system: NCI-H460 NSCLC
DU-145 prostate = system: DU-145 prostate
SF-295 CNS = system: SF-295 CNS
SNB-75 CNS = system: SNB-75 CNS
TK-10 renal = system: TK-10 renal
A549 NSCLC = system: A549 NSCLC
K-562 leukemia = system: K-562 leukemia
CCRF-CEM leukemia = system: CCRF-CEM leukemia

With `CON(C)C(=O)N1N=C(c2cc(F)ccc2F)SC1(CCCN)c1ccccc1` (configuration not stated) the GI50 (CAKI-1 renal) was 2.26 µM and 2.08 µM, the TGI (CAKI-1 renal) was 19.2 µM and 19.3 µM and the GI50 (MCF7 breast) was under 0.01 µM. The TGI (MCF7 breast) was 11.9 µM and 12.1 µM, the GI50 (SN12C renal) was under 0.01 µM and the TGI (SN12C renal) was 14.7 µM and 16.6 µM. The GI50 (HCT-15 colon) was under 0.01 µM, the TGI (HCT-15 colon) was 11.7 µM and the GI50 (ACHN renal) was 11.2 µM and 1.63 µM. For the same compound, the TGI (ACHN renal) was 23.3 µM and 19.6 µM, the GI50 (NCI-H23 lung) was under 0.01 µM and the TGI (NCI-H23 lung) was 12.7 µM and 11.5 µM. The GI50 (RPMI-8226 leukemia) was under 0.01 µM, the TGI (RPMI-8226 leukemia) was under 0.01 µM and the GI50 (MDA-MB-435 melanoma) was under 0.01 µM. For the same compound, the TGI (MDA-MB-435 melanoma) was under 0.01 µM, the GI50 (OVCAR-3 ovarian) was under 0.01 µM and the TGI (OVCAR-3 ovarian) was under 0.01 µM. The GI50 (HCT-116 colon) was under 0.01 µM, the TGI (HCT-116 colon) was 11.2 µM and 11.4 µM and the GI50 (SNB-19 CNS) was under 0.01 µM. The TGI (SNB-19 CNS) was 11.7 µM and 7.12 µM, the GI50 (SF-539 CNS) was under 0.01 µM and the TGI (SF-539 CNS) was 10.2 µM. The GI50 (MDA-MB-231 breast) was under 0.01 µM, the TGI (MDA-MB-231 breast) was 13.8 µM and 15.4 µM and the GI50 (UACC-62 melanoma) was under 0.01 µM. The TGI (UACC-62 melanoma) was 16.4 µM and 16.1 µM, the GI50 (T-47D breast) was 0.0138 µM and < 0.01 µM and the TGI (T-47D breast) was 18.3 µM and 18.1 µM. It also gave a GI50 (HL-60(TB) leukemia) of under 0.01 µM, a TGI (HL-60(TB) leukemia) of under 0.01 µM and a GI50 (KM12 colon) of under 0.01 µM. For the same compound, the TGI (KM12 colon) was 12.1 µM and 11.9 µM, the GI50 (NCI-H226 lung) was 10.2 µM and 2.24 µM and the TGI (NCI-H226 lung) was 22 µM and 16.9 µM. For the same compound, the GI50 (SK-MEL-5 melanoma) was under 0.01 µM, the TGI (SK-MEL-5 melanoma) was under 0.01 µM and the GI50 (SK-OV-3 ovarian) was under 0.01 µM. For the same compound, the TGI (SK-OV-3 ovarian) was 12.2 µM and 11.9 µM, the GI50 (NCI-H522 lung) was under 0.01 µM and the TGI (NCI-H522 lung) was under 0.01 µM. For the same compound, the GI50 (OVCAR-8 ovarian) was under 0.01 µM, the TGI (OVCAR-8 ovarian) was 14.5 µM and 13.4 µM and the GI50 (MALME-3M melanoma) was 1.19 µM and 1.26 µM. The TGI (MALME-3M melanoma) was 3.53 µM and 11.8 µM, the GI50 (BT-549 breast) was under 0.01 µM and the TGI (BT-549 breast) was 11.9 µM and 11.1 µM. The GI50 (U251 glioblastoma) was under 0.01 µM, the TGI (U251 glioblastoma) was 10.9 µM and 11.2 µM and the GI50 (LOX IMVI melanoma) was under 0.01 µM. For the same compound, the TGI (LOX IMVI melanoma) was 10.5 µM and 11.1 µM, the GI50 (HCC-2998 colon) was under 0.01 µM and the TGI (HCC-2998 colon) was under 0.01 µM. For the same compound, the GI50 (HS 578T breast) was under 0.01 µM, the TGI (HS 578T breast) was under 0.01 µM and the GI50 (NCI/ADR-RES ovarian) was 0.116 µM and 0.0175 µM. For the same compound, the TGI (NCI/ADR-RES ovarian) was 0.27 µM and 0.137 µM, the GI50 (HOP-92 NSCLC) was 10.1 µM and 8.95 µM and the TGI (HOP-92 NSCLC) was 21.8 µM and 21.6 µM. The GI50 (MOLT-4 leukemia) was under 0.01 µM, the TGI (MOLT-4 leukemia) was under 0.01 µM and the GI50 (PC-3 prostate) was under 0.01 µM. The TGI (PC-3 prostate) was 15.3 µM and 12.8 µM, the GI50 (SF-268 CNS) was under 0.01 µM and the TGI (SF-268 CNS) was 15.7 µM and 15.3 µM. The GI50 (RXF 393 renal) was under 0.01 µM, the TGI (RXF 393 renal) was 17.9 µM and 17.8 µM and the GI50 (OVCAR-4 ovarian) was under 0.01 µM. For the same compound, the TGI (OVCAR-4 ovarian) was 14 µM and 12.6 µM, the GI50 (COLO 205 colon) was under 0.01 µM and the TGI (COLO 205 colon) was under 0.01 µM. For the same compound, the GI50 (IGROV1 ovarian) was 1.84 µM and 1.13 µM, the TGI (IGROV1 ovarian) was 18.8 µM and 14.7 µM and the GI50 (SK-MEL-28 melanoma) was 2.38 µM and 11.6 µM. The TGI (SK-MEL-28 melanoma) was 19.6 µM and 24 µM, the GI50 (OVCAR-5 ovarian) was 0.0106 µM and < 0.01 µM and the TGI (OVCAR-5 ovarian) was 0.0842 µM and < 0.01 µM. For the same compound, the GI50 (MDA-MB-468 breast) was under 0.01 µM, the TGI (MDA-MB-468 breast) was under 0.01 µM and the GI50 (NCI-H322M lung) was under 0.01 µM. The TGI (NCI-H322M lung) was 17.2 µM and 14.9 µM, the GI50 (SR leukemia) was under 0.01 µM and the TGI (SR leukemia) was under 0.01 µM. The GI50 (A498 renal) was under 0.01 µM, the TGI (A498 renal) was 14.5 µM and 13.2 µM and the GI50 (HOP-62 NSCLC) was under 0.01 µM. For the same compound, the TGI (HOP-62 NSCLC) was 14.5 µM and 13.8 µM, the GI50 (UACC-257 melanoma) was under 0.01 µM and the TGI (UACC-257 melanoma) was 2.29 µM and 2.47 µM. The GI50 (HT29 colon) was under 0.01 µM, the TGI (HT29 colon) was 1.15 µM and 1.31 µM and the GI50 (EKVX NSCLC) was under 0.01 µM. The TGI (EKVX NSCLC) was 15.6 µM and 14.8 µM, the GI50 (M14 melanoma) was under 0.01 µM and the TGI (M14 melanoma) was under 0.01 µM. For the same compound, the GI50 (NCI-H460 NSCLC) was under 0.01 µM, the TGI (NCI-H460 NSCLC) was under 0.01 µM and the GI50 (DU-145 prostate) was under 0.01 µM. The TGI (DU-145 prostate) was under 0.01 µM, the GI50 (SF-295 CNS) was under 0.01 µM and the TGI (SF-295 CNS) was 12.8 µM and 13.1 µM. For the same compound, the GI50 (SNB-75 CNS) was under 0.01 µM, the TGI (SNB-75 CNS) was 16 µM and 15.9 µM and the GI50 (TK-10 renal) was 0.0117 µM. The TGI (TK-10 renal) was 17.4 µM, the GI50 (A549 NSCLC) was under 0.01 µM and the TGI (A549 NSCLC) was 18.6 µM and 18.7 µM.
With `Nc1ncn(C2CC(O)C(CO)O2)c(=O)n1` (configuration not stated) the GI50 (HCT-15 colon) was over 31.2 µM, the GI50 (ACHN renal) was 7.84 µM and the GI50 (RPMI-8226 leukemia) was 0.225 µM. It also gave a GI50 (K-562 leukemia) of 1.28 µM, a GI50 (HL-60(TB) leukemia) of 0.629 µM and a GI50 (SK-MEL-5 melanoma) of 0.705 µM. For the same compound, the GI50 (OVCAR-8 ovarian) was over 32.9 µM, the GI50 (CCRF-CEM leukemia) was 0.706 µM and the GI50 (MOLT-4 leukemia) was 0.0397 µM. For the same compound, the GI50 (COLO 205 colon) was 65.6 µM, the GI50 (MDA-MB-468 breast) was under 0.0183 µM and the TGI (MDA-MB-468 breast) was 0.0532 µM. It also gave a GI50 (SR leukemia) of 2.92 µM and a GI50 (NCI-H460 NSCLC) of 1.98 µM.
